PubChem BioAssay (NCI)
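Briefly, cells in 96-well plates were exposed to five compound concentrations for 48 h, and endpoints were estimated by linear interpolation. GI50: concentration for 50% inhibition of growth. TGI: total growth inhibition.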

How the values were obtained:
Assay in all cases: inhibition of tumour cell growth, NCI panel, 48 h
[1] = system: TK-10 renal
[2] = system: HL-60(TB) leukemia
[3] = system: T-47D breast
[4] = system: NCI-H226 lung
[5] = system: HT29 colon
[6] = system: HCC-2998 colon
[7] = system: NCI/ADR-RES ovarian
[8] = system: MCF7 breast
[9] = system: RPMI-8226 leukemia
[10] = system: U251 CNS
[11] = system: 786-0 renal
[12] = system: CAKI-1 renal
[13] = system: OVCAR-8 ovarian
[14] = system: SF-295 CNS
[15] = system: NCI-H522 lung
[16] = system: SK-OV-3 ovarian
[17] = system: SK-MEL-2 melanoma
[18] = system: NCI-H460 lung
[19] = system: HOP-62 NSCLC
[20] = system: NCI-H23 lung
[21] = system: KM12 colon
[22] = system: SF-268 CNS
[23] = system: EKVX NSCLC
[24] = system: UACC-257 melanoma
[25] = system: SN12C renal
[26] = system: RXF 393 renal
[27] = system: SW-620 colon
[28] = system: BT-549 breast
[29] = system: HCT-15 colon

With CN(C)CCCN1c2ccccc2CCc2ccc(Cl)cc21 the TGI [1] was 27.2 µM, the GI50 [2] was 3.63 µM and the TGI [2] was 13.2 µM. It also gave a GI50 [3] of 3.26 µM, a TGI [3] of 10.6 µM and a GI50 [4] of 7.22 µM. The TGI [4] was 22.5 µM, the GI50 [5] was 3.38 µM and the TGI [5] was 11.6 µM. The GI50 [6] was 1800 nM, the TGI [6] was 3.75 µM and the GI50 [7] was 3.33 µM. The TGI [7] was 14.8 µM, the GI50 [8] was 1760 nM and the TGI [8] was 3.66 µM. The GI50 [9] was 2620 nM, the TGI [9] was 8.26 µM and the GI50 [10] was 3.8 µM. For the same compound, the TGI [10] was 14.7 µM, the GI50 [11] was 5.5 µM and the TGI [11] was 19.2 µM. It also gave a GI50 [12] of 3.88 µM, a TGI [12] of 16.8 µM and a GI50 [13] of 8.23 µM. The TGI [13] was 23.6 µM, the GI50 [14] was 3.51 µM and the TGI [14] was 14.8 µM. For the same compound, the GI50 [15] was 5.15 µM, the TGI [15] was 18.1 µM and the GI50 [16] was 4.49 µM. It also gave a TGI [16] of 15.4 µM, a GI50 [17] of 3.01 µM and a TGI [17] of 7.51 µM. It also gave a GI50 [18] of 4.46 µM, a TGI [18] of 19.1 µM and a GI50 [19] of 10.8 µM. For the same compound, the TGI [19] was 23.3 µM, the GI50 [20] was 7.51 µM and the TGI [20] was 21.9 µM. The GI50 [21] was 3.77 µM, the TGI [21] was 13.6 µM and the GI50 [22] was 4.92 µM. The TGI [22] was 18.2 µM, the GI50 [23] was 10.9 µM and the TGI [23] was 26.4 µM. The GI50 [24] was 1840 nM, the TGI [24] was 3.41 µM and the GI50 [25] was 3.26 µM. The TGI [25] was 16.3 µM, the GI50 [26] was 2000 nM and the TGI [26] was 7.66 µM. For the same compound, the GI50 [27] was 3.92 µM, the TGI [27] was 16 µM and the GI50 [28] was 10.4 µM. It also gave a TGI [28] of 22.2 µM, a GI50 [29] of 3.35 µM and a TGI [29] of 12.1 µM.
